From patent US6526316B2, “Iontophoresis method” (Hisamitsu Pharmaceutical Co., Inc., priority 1997, dated 2003)

Columns and labels:
[1] = Serum hPTH(1-34) concentration after repeated intradermal injection (Reference Example 1); assay type: in vivo, rat; settings: intradermal injection three times at 1 hour intervals, 1 μg/kg or 5 μg/kg per dose
Method: Female SD rats (12 weeks old) were ovariectomized and intradermally injected with an aqueous solution of hPTH(1-34) three times at 1 hour intervals at a one time administration dose of 1 μg/kg or 5 μg/kg. Concentration of hPTH(1-34) in serum of the rats was measured by radio immunoassay.

[2] = Serum hPTH(1-34) concentration during transdermal iontophoresis (Example 1); assay type: in vivo, rat; settings: male SD rats; iontophoresis anode patch 200 μg or 400 μg; 0.1 mA/cm^2, 30 min current and 45 min rest repeated three times; radio immunoassay; FIG. 3
Method: Hair on the abdominal skin of male, SD rats (7 weeks old) was shaved off. To the shaved part was attached the iontophoresis apparatus which comprises an anode patch containing 200 μg or 400 μg of hPTH(1-34) and a cathode patch without hPTH(1-34), as mentioned above. The apparatus was connected to an electric generator (50 kHz and 50% duty), and an electric current application using constant transport current (0.1 mA/cm^2) for 30 minutes and a 45-minute rest interval (corresponding to blood concentration of one pulse) was repeated three times. During the repetitions, blood was taken periodically, and concentration of hPTH(1-34) in serum was measured by radio immunoassay.

CC[C@H](C)[C@H](NC(=O)[C@H](CCC(=O)O)NC(=O)[C@H](CO)NC(=O)[C@@H](NC(=O)[C@@H](N)CO)C(C)C)C(=O)N[C@@H](CCC(N)=O)C(=O)N[C@@H](CC(C)C)C(=O)N[C@@H](CCSC)C(=O)N[C@@H](Cc1cnc[nH]1)C(=O)N[C@@H](CC(N)=O)C(=O)N[C@@H](CC(C)C)C(=O)NCC(=O)N[C@@H](CCCCN)C(=O)N[C@@H](Cc1cnc[nH]1)C(=O)N[C@@H](CC(C)C)C(=O)N[C@@H](CC(N)=O)C(=O)N[C@@H](CO)C(=O)N[C@@H](CCSC)C(=O)N[C@@H](CCC(=O)O)C(=O)N[C@@H](CCCN=C(N)N)C(=O)N[C@H](C(=O)N[C@@H](CCC(=O)O)C(=O)N[C@@H](Cc1c[nH]c2ccccc12)C(=O)N[C@@H](CC(C)C)C(=O)N[C@@H](CCCN=C(N)N)C(=O)N[C@@H](CCCCN)C(=O)N[C@@H](CCCCN)C(=O)N[C@@H](CC(C)C)C(=O)N[C@@H](CCC(N)=O)C(=O)N[C@@H](CC(=O)O)C(=O)N[C@H](C(=O)N[C@@H](Cc1cnc[nH]1)C(=O)N[C@@H](CC(N)=O)C(=O)N[C@@H](Cc1ccccc1)C(=O)O)C(C)C)C(C)C [hPTH(1-34)]
maximum blood concentrations vs dose [1]: proportional to the injected doses
blood concentration profile of hPTH(1-34) in serum ([1]; ovariectomized female SD rats, radio immunoassay, FIG. 1): three sharp pulses
blood concentration profile of hPTH(1-34) in serum [2]: three sharp peaks
